# Publication PMC9178010, “Identification and characterization of a prokaryotic 6-4 photolyase from Synechococcus elongatus with a deazariboflavin antenna chromophore” (Nucleic Acids Research, 2022)
# Columns and labels:
# Assay type in all cases: binding
# AfPhrB = molecular target: T1, AfPhrB (Agrobacterium fabrum, UniProt A9CH39); experiment: co-purified cofactor; absorption, fluorescence and TLC of denatured protein; settings: co-purified from E. coli
# T1 construct: gene phrB; synthetic phrB gene in pET22b, E. coli BL21(DE3), Ni-NTA and Superdex 200
# T1 sequence (A9CH39 whole entry): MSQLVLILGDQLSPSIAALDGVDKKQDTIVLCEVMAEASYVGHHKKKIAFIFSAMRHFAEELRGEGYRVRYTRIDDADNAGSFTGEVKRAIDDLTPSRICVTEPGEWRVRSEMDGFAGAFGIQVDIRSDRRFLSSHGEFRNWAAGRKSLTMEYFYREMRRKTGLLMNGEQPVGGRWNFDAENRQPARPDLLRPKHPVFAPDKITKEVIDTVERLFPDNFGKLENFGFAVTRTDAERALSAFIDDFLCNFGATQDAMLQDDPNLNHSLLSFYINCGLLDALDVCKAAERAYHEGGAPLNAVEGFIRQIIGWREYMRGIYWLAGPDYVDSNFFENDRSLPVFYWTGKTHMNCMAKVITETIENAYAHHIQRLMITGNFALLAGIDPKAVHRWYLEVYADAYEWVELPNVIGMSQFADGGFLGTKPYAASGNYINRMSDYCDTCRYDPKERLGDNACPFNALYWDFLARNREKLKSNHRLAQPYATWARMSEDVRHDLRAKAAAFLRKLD
# [1] = molecular target: T2, SePhrB (SePhrB[Ec]; SePhrB[ScFbiC]; SePhrB[8-HDF]) (Synechococcus elongatus, UniProt Q31P18); experiment: as above
# T2 construct: gene Synpcc7942_1171; full-length gene in pET22b, E. coli BL21(DE3), Ni-NTA and Superdex 200; iron-sulfur cluster protein; expressed alone or with S. coelicolor FbiC
# T2 sequence (Q31P18 1-503): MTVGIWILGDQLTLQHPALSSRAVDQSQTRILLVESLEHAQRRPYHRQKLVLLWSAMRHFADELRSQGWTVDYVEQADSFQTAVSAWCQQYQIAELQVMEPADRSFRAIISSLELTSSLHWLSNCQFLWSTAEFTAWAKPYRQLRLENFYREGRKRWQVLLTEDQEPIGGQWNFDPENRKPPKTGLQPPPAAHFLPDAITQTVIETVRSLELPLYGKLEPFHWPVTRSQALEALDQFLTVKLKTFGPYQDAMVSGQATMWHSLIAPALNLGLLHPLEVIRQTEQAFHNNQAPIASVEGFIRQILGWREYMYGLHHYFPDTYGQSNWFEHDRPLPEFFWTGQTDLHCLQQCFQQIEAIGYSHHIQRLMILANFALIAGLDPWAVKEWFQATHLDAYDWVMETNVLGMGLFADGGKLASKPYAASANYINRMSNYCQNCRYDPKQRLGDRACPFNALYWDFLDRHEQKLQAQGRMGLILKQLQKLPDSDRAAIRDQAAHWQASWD
# SePhrA (SePhrA[ScFbiC]) [2] = molecular target: T3, SePhrA (SePhrA[ScFbiC]) (Synechococcus elongatus, UniProt Q31S25); experiment: TLC of denatured protein supernatant; settings: catalytic cofactor; co-expressed with S. coelicolor FO synthase FbiC
# T3 construct: gene Synpcc7942_0112; full-length gene in pET22b, E. coli BL21(DE3), co-expressed with S. coelicolor FbiC; Ni-NTA and Superdex 200
# T3 sequence (Q31S25 1-484): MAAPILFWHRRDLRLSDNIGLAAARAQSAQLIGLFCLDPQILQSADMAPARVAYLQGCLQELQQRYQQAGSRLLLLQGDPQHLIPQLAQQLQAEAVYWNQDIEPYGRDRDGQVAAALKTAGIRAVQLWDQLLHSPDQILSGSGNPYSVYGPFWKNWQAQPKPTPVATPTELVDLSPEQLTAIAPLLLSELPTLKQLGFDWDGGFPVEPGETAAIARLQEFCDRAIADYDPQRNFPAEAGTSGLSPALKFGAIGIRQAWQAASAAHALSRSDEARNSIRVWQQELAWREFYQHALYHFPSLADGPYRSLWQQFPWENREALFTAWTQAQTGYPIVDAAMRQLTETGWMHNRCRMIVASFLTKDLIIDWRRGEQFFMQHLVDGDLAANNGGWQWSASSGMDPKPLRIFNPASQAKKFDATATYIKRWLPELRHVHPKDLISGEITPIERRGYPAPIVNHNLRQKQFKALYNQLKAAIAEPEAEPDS
# SePhrA (SePhrA[ScFbiC]) [3] = molecular target: T3, SePhrA (SePhrA[ScFbiC]); experiment: co-purified cofactor; absorption, fluorescence and TLC of denatured protein; settings: antenna chromophore; co-expressed with S. coelicolor FO synthase FbiC
compound,measurement,setting,value
Cc1cc2nc3c(=O)[nH]c(=O)nc-3n(C[C@H](O)[C@H](O)[C@H](O)COP(=O)(O)OP(=O)(O)OC[C@H]3O[C@@H](n4cnc5c(N)ncnc54)[C@H](O)[C@@H]3O)c2cc1C [FAD],"co-purified cofactor; absorption, fluorescence and TLC of denatured protein",AfPhrB; catalytic cofactor,the supernatant of AfphrB produced a yellow fluorescent band of FAD
same,"co-purified cofactor; absorption, fluorescence and TLC of denatured protein","[1]; catalytic cofactor, expressed in E. coli without FbiC, fully oxidized as purified",SePhrB[Ec] gave only one yellow fluorescent band with the same Rf value of authentic FAD
same,TLC of denatured protein supernatant,SePhrA (SePhrA[ScFbiC]) [2],each of them had a yellow FAD band
"Cc1nc2c(=O)[nH]c(=O)nc-2n(C[C@H](O)[C@H](O)[C@H](O)CO)c1C [DMRL, 6,7-dimethyl-8-ribityllumazine]","co-purified cofactor; absorption, fluorescence and TLC of denatured protein",AfPhrB; antenna chromophore,"a yellow fluorescent band of FAD, and a blue-green fluorescent band of DMRL"
"O=c1nc2n(C[C@H](O)[C@H](O)[C@H](O)CO)c3cc(O)ccc3cc-2c(=O)[nH]1 [8-HDF, 7,8-didemethyl-8-hydroxy-5-deazariboflavin]","co-purified cofactor; absorption, fluorescence and TLC of denatured protein","[1]; antenna chromophore, co-expressed with S. coelicolor FO synthase FbiC",SePhrB associates with FAD and 8-HDF when co-expressed with the ScFbiC
same,"co-purified cofactor; absorption, fluorescence and TLC of denatured protein",SePhrA (SePhrA[ScFbiC]) [3],an additional bright blue band that was attributed to 8-HDF
